This passage reports IC50 results from publication PMC2131784, “Inhibition of Chk1 Kills Tetraploid Tumor Cells through a p53-Dependent Pathway” (PLoS ONE, 2007).

pIC50: −log10 of the molar value.

The target of the assay is T1, Chk1 (checkpoint kinase-1) (Homo sapiens, UniProt O14757).
T1 construct: gene CHEK1; recombinant Chk1
T1 sequence (O14757 1-476): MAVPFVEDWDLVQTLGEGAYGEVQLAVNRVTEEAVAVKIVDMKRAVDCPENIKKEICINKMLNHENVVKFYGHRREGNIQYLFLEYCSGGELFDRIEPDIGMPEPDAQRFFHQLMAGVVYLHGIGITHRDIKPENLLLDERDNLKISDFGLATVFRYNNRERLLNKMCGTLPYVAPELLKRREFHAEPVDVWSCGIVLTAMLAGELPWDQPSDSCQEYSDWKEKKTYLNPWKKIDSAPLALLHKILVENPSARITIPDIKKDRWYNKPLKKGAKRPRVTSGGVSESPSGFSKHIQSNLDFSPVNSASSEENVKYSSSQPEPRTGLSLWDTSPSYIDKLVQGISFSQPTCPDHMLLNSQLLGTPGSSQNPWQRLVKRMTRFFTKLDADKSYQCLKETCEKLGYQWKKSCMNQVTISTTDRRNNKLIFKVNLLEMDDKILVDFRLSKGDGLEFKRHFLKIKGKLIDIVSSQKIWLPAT
In words: in vitro inhibition of recombinant Chk1 (assay details not given). The format is biochemical.

With SD1825, the pIC50 was 7.54.
